The target of one test is CDK4/Cyclin D1 (Homo sapiens (Human), UniProt P11802). Kind of test: TR-FRET kinase inhibition assay, CDK4/Cyclin D1. To be noted: 1 mM ATP, 0.15 μM Rb (Ser780)-biotin substrate, read-out: CDK4D1 IC50. Type of test: biochemical. The procedure, abridged: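 Kinase was preincubated with compound for 60 min at room temperature, then reacted with ATP and Rb (Ser780)-biotin substrate for 120 min. IC50 came from a four-parameter logistic fit.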
(Time-resolved FRET reads energy transfer from a long-lived donor to a nearby acceptor.)

In the next test the target is CDK6/Cyclin D3 (Homo sapiens (Human), UniProt Q00534). Kind of test: TR-FRET kinase inhibition assay, CDK6/Cyclin D3. The note with it: 1 mM ATP, 0.15 μM Rb (Ser780)-biotin substrate, read-out: CDK6D3 IC50. Format: biochemical. The gist of the method: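 Kinase preincubated 60 min at room temperature with 0–10 μM compound; reaction started with 1 mM ATP and 0.15 μM Rb (Ser780)-biotin, run 120 min at room temperature in HEPES pH 7.0, 50 mM MgCl2. pRb detected by TR-FRET (665/620 nm ratio); IC50 from four-parameter logistic fit.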
Chain of CDK6/Cyclin D3 (Q00534 whole entry): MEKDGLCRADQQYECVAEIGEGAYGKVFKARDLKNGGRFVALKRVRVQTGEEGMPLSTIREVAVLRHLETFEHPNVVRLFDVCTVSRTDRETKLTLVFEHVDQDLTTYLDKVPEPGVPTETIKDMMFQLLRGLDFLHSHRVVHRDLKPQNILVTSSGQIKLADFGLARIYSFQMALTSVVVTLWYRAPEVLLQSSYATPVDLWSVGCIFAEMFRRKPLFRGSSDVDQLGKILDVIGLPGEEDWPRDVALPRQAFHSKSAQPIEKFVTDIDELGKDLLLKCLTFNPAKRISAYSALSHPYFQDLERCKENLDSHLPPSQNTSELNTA
Chain of CDK6/Cyclin D3 (P30281 whole entry partner): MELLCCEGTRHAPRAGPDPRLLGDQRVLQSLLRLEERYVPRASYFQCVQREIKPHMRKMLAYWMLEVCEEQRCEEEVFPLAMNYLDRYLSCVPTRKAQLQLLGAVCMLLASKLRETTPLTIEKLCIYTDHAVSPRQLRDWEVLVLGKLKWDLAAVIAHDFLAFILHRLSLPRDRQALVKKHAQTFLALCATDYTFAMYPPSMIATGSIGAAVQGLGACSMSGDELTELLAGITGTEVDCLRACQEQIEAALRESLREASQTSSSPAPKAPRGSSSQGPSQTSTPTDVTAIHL

Molecules are shown by their SMILES.

Chain of CDK4/Cyclin D1 (P11802 whole entry): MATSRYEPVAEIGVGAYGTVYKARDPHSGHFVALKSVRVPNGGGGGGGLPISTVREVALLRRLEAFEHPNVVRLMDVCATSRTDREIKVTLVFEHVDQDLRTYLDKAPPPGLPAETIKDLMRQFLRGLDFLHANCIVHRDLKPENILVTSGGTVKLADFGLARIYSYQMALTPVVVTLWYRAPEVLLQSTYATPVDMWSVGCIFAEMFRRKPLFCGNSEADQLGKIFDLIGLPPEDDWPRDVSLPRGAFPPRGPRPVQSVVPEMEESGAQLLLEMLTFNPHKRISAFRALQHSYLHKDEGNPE
Chain of CDK4/Cyclin D1 (P24385 whole entry partner): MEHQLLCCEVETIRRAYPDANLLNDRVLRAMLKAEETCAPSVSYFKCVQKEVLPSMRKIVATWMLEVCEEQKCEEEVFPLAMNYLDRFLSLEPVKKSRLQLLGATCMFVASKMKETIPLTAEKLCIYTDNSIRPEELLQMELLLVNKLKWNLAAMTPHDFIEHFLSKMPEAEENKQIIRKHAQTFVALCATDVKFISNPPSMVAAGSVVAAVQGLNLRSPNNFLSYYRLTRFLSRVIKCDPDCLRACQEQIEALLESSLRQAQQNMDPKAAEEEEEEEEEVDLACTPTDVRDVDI

As a reminder, the IC50 is the concentration at which inhibition is half-maximal. For `CC(C)n1c(CN2CC[C@](C)(O)C2)cc(=O)c2ccc(-c3nc(N[C@@H]4CCOC[C@H]4O)ncc3F)cc21` [Example 61, 7-(5-fluoro-2-(((3S,4R)-3-hydroxytetrahydro-2H-pyran-4-yl)amino)pyrimidin-4-yl)-2-(((S)-3-hydroxy-3-methylpyrrolidin-1-yl)methyl)-1-isopropylquinolin-4(1H)-one], the IC50 on CDK4/Cyclin D1 was 30 nM; on CDK6/Cyclin D3, 1170 nM.

As to `CC(C)n1c(CN2CCOC[C@H]2C)cc(=O)c2ccc(-c3nc(N[C@@H]4CCOC[C@H]4O)ncc3F)cc21` [Example 82, 7-(5-fluoro-2-(((3S,4R)-3-hydroxytetrahydro-2H-pyran-4-yl)amino)pyrimidin-4-yl)-1-isopropyl-2-(((R)-3-methylmorpholino)methyl)quinolin-4(1H)-one], the IC50 is 12 nM on CDK4/Cyclin D1 and 540 nM on CDK6/Cyclin D3.

Turning to `CC(C)n1c(CN(C)C)cc(=O)c2ccc(-c3nc(N[C@@H]4CCOC[C@H]4O)ncc3F)cc21` [Example 20, 2-((dimethylamino)methyl)-7-(5-fluoro-2-(((3S,4R)-3-hydroxytetrahydro-2H-pyran-4-yl)amino)pyrimidin-4-yl)-1-isopropylquinolin-4(1H)-one], the IC50 came out at 15 nM on CDK4/Cyclin D1 and 510 nM on CDK6/Cyclin D3.

As for `Cc1c(CN2CC3CCC(C2)O3)n(C(C)C)c2cc(-c3nc(N[C@@H]4CCOC[C@H]4O)ncc3F)ccc2c1=O` [Example 102, 2-((8-oxa-3-azabicyclo[3.2.1]octan-3-yl)methyl)-7-(5-fluoro-2-(((3S,4R)-3-hydroxytetrahydro-2H-pyran-4-yl)amino)pyrimidin-4-yl)-1-isopropyl-3-methylquinolin-4(1H)-one], the figures for the IC50 on CDK4/Cyclin D1 and at CDK6/Cyclin D3 were 15 nM and 330 nM, respectively.

(Values after US20250136586A1, “Substituted 7-(Pyrimidin-4-yl)Quinolin-4(1H)-One Compounds as Cyclin Dependent Kinase Inhibitors” (BeiGene, Ltd., priority 2022, published 2025).)
